{"source": "patent EP0542807B1", "about": "“USE OF 2-PHENYL-1,2-BENZISOSELENAZOL-3(2H)-ONE” (RHONE-POULENC RORER GMBH, priority 1990, dated 1992)", "key": {"Prima breast tumor cells": {"system": "Prima breast tumor cells", "assay": "Nephrotoxicity and antitumor activity in mice inoculated with Prima breast tumor cells", "type": "in vivo, BALB/c mice", "settings": "for T/C Day 15: T/C = mean tumor weight treated/control mice; for Incidence of tumors Day 8: by palpation", "text": "(§1) Tumors. MPC 11 tumor cells were obtained from the institute of Pathology, University of Utrecht, The Netherlands. The MPC 11 tumor originated as a plasmacytoma, and was originally obtained from Dr. D. Catty, Birmingham, United Kingdom. The tumor cells were maintained by weekly passages in BALB/c mice. Freshly harvested ascitic cells were used in the experiments. Cells were counted with a hemocytometer. Transplantable Prima mammary tumor cells were obtained from the Radiobiological Institute TNO, Rijswijk, The Netherlands. The Prima tumor originated as a mammary carcinoma, induced by forced breeding in BALB/c mice bearing murine mammary tumor virus. The Prima tumor cell-line was cultured in vitro in standard Dulbecco's modification of Minimal Essential Medium (Gibco, Paisley, United Kingdom), supplemented with L-glutamine (500 mg/l), 2-mercapto-ethanol (60 umol/l) and 10% fetal calf serum (Flow Laboratories, Zwanenburg, The Netherlands).\n(§2) Laboratory Animals. Female BALB/c mice were obtained from the Central Institute for the Breeding of Laboratory Animals/Harlan Sprague-Dawley (CPB/HSD), Zeist, The Netherlands. The mice were 8 weeks of age and weighed 18-20 g at the start of the experiments. All animals were provided with standard laboratory food (SRMA chow, Hope Farms, Woerden, The Netherlands) and water ad libitum.\n(§3) Treatment. Animals were divided at random into groups of 8. […] Ebselen was dissolved in f a mixture of dimethylsulfoxide/polyethyleneglycol/physiological saline (1/4/20) and administered i.p. in a volume of 0.6 ml.\nControl groups were treated with ebselen or the vehicle. The occurrance of tumors was examined daily by palpation. The experiments were terminated on Day 15 when the tumors were excised and weighed.\n(§4) Statistics. Student's test, unpaired, was used to evaluate the significance of differences between experimental groups. The level of significance was set at P < 0.05."}, "[1]": {"design": "species or system BALB/c mice", "settings": "mouse, in vivo", "protocol": "Kidney Function. […] Blood samples were obtained from the retroorbital venous plexus in the mice. Serum creatinine and BUN were measured daily in pilot studies (data not shown) and in more extensive studies at the time of maximally observed toxicity : Day 4.\nLiver Function. […] Control groups were treated with ebselen or the vehicle."}, "[2]": {"assay": "Cisplatin-induced nephrotoxicity in mice (kidney function: BUN, serum creatinine)", "type": "in vivo, BALB/c mice", "settings": "for Effect on cisplatin-induced increase of BUN and serum creatinine: Day 4", "protocol": "as §2, §3\nKidney Function. […] Blood samples were obtained from the retroorbital venous plexus in the mice.\nas §4"}, "[3]": {"assay": "Acute toxicity (LD0) in mice", "type": "in vivo", "settings": "acute investigations", "protocol": "(§5) Since, in contrast to the previously known and applied selenium compounds, Ebselen is low in toxicity (LD0 > 1000 mg/kg body weight in acute investigations in mice and rats) and the maximum doses to be administered lie greatly below this value, administration to patients can be regarded as being without danger."}, "MPC 11 tumor cells": {"system": "MPC 11 tumor cells", "assay": "Nephrotoxicity and antitumor activity in mice inoculated with MPC 11 tumor cells", "type": "in vivo, BALB/c mice", "settings": "for T/C: T/C=MST treated/ MST control", "text": "as §1, §2, §3\nEvaluation of Antitumor Activity. […] Control groups were treated with ebselen or the vehicle. Mice were examined daily for occurrence of tumors. The experiments were terminated on Day 42 and median survival times (MSTs) were calculated.\nas §4"}, "[4]": {"assay": "Acute toxicity (LD0) in rats", "type": "in vivo", "settings": "acute investigations", "protocol": "as §5"}, "LLC-PK1 cells": {"system": "LLC-PK1 cells", "assay": "In-vitro toxicity of cisplatin in LLC-PK1 cells (LDH-leakage, protein remaining attached to the culture plate)", "type": "cell-based, porcine", "protocol": "LLC-PK1 are porcine kidney cells which express many characteristics of proximal tubule epithelium. […] In this cell line the LDH-leakage can be used as criterium for cell toxicity.\nCells were seeded in 24 well culture dishes ([…]) and allowed to grow to confluence (2.4 x 10^5 cell/cm^2) over 8 days in serum containing 5 % fetal calf serum. The cells were then maintained in serum-free medium for 2 days before drug treatment. Only monolayers in which dome formation occurred were used for the experiments.\nEbselen was dissolved in 2% dimethylsulfoxide in the sterile salt solution.\nAfter incubation, the monolayers were washed 3 times with physiological saline to remove residual drug. Subsequently, the cells were grown in medium containing 5% fetal calf serum. Cell viability was assessed at different timepoints. In control experiments, monolayers were exposed to the vehicle in stead of drugs.\nIn control experiments, ebselen was replaced by the vehicle."}, "[5]": {"assay": "Histology of kidneys and retroperitoneal ganglionic tissue", "type": "in vivo, BALB/c mice", "settings": "cisplatin alone versus cisplatin and ebselen given 1 h before", "protocol": "Histology. Mice were sacrificed four days after treatment with cisplatin alone or Ebselen and cisplatin. Control groups were treated with Ebselen alone or the vehicle. Kidneys and livers were removed and processed for light microscopy. Sections of 6 um thickness were cut and stained in hematoxylin : eosin. All slides were examined without prior knowledge of the treatment given to the animal from which the specimen under investigation was taken."}, "[6]": {"settings": "Cisplatin 11.5 mg/kg alone, n=8"}}}
{"smiles": "O=c1c2ccccc2[se]n1-c1ccccc1", "note": "[Ebselen, 2-phenyl-1,2-benzisoselenazol-3(2H)-one]", "values": [{"measurement": "Influence on the antitumor activity of cisplatin", "setting": "Prima breast tumor cells; Ebselen 10 mg/kg 1 h before cisplatin", "result": "did not reduce the antitumor activity of cisplatin"}, {"measurement": "Efficacy against the Prima tumor", "setting": "Prima breast tumor cells; Ebselen 10 mg/kg alone", "result": "not effective"}, {"measurement": "T/C Day 15", "setting": "Prima breast tumor cells; Ebselen 10.0 mg/kg alone", "result": 100, "unit": "%"}, {"measurement": "Incidence of tumors Day 8", "setting": "Prima breast tumor cells; Ebselen 10.0 mg/kg alone", "result": 100, "unit": "%"}, {"measurement": "Mean tumor weight Day 15", "setting": "Prima breast tumor cells; Ebselen 10.0 mg/kg alone, n=8", "result": "1.5 ± 0.4", "unit": "g"}, {"measurement": "Survival Day 8", "setting": "Prima breast tumor cells; Ebselen 10.0 mg/kg alone, n=8", "result": 100, "unit": "%"}, {"measurement": "Functional liver- or kidney-damage", "setting": "[1]", "result": "did not cause functional liver- or kidney-damage"}, {"measurement": "Effect on cisplatin-induced increase of BUN and serum creatinine", "setting": "[2]; Ebselen 1 h before cisplatin 11.5 to 19.0 mg/kg", "result": "prevented the increase in levels of BUN and serum creatinine at all cisplatin doses tested with exception of the highest dose"}, {"measurement": "Ebselen dose of maximal protection against cisplatin-induced nephrotoxicity", "setting": "[2]; cisplatin 14.5 mg/kg, ebselen i.p. 1 h before", "result": 10.0, "unit": "mg/kg"}, {"measurement": "Effect on cisplatin-induced increase of BUN and serum creatinine", "setting": "[2]; ebselen 1 h after cisplatin", "result": "a protective effect against cisplatin-induced elevations of the levels of BUN and serum creatinine was also observed, but less marked"}, {"measurement": "LD0", "setting": "[3]", "result": "> 1000", "unit": "mg/kg body weight"}, {"measurement": "T/C", "setting": "MPC 11 tumor cells; Ebselen 10.0 mg/kg alone", "result": 106, "unit": "%"}, {"measurement": "Incidence of tumors Day 7", "setting": "MPC 11 tumor cells; Ebselen 10.0 mg/kg alone, n=8", "result": 100, "unit": "%"}, {"measurement": "MST", "setting": "MPC 11 tumor cells; Ebselen 10.0 mg/kg alone, n=8", "result": "17 ± 2", "unit": "days"}, {"measurement": "Survival Day 7", "setting": "MPC 11 tumor cells; Ebselen 10.0 mg/kg alone, n=8", "result": 100, "unit": "%"}, {"measurement": "Influence on the antitumor activity of cisplatin", "setting": "MPC 11 tumor cells; MPC 11 plasmacytoma, ebselen i.p. 1 h prior to cisplatin", "result": "did not reduce the antitumor activity of cisplatin"}, {"measurement": "MST versus vehicle control", "setting": "MPC 11 tumor cells; ebselen alone", "result": "identical to that of the control group"}, {"measurement": "LD0", "setting": "[4]", "result": "> 1000", "unit": "mg/kg body weight"}, {"measurement": "Cell viability versus cells not pre-exposed (time course)", "setting": "LLC-PK1 cells; 10 uM Ebselen 1 h, then 0.4 mM cisplatin 1 h, whole period up till 72 h", "result": "significantly higher"}, {"measurement": "Ebselen concentration of highest protection", "setting": "LLC-PK1 cells; pre-incubation 1 h before cisplatin, concentration-dependent", "result": 15, "unit": "µM"}, {"measurement": "Protection from cisplatin-induced decrease in viability", "setting": "LLC-PK1 cells; pre-incubation with Ebselen 5-15 uM for 1 h, then 0.2 or 0.4 mM cisplatin 1 h, t = 72 h", "result": "protected the cells from a decrease in viability"}, {"measurement": "Protection from cisplatin-induced decrease in viability", "setting": "LLC-PK1 cells; pre-incubation with ebselen, cisplatin 0.8 mM for 1 h", "result": "could not protect the cells against the decrease in viability"}]}
{"smiles": "N.N.[Cl][Pt][Cl]", "note": "[Cisplatin]", "values": [{"measurement": "T/C Day 15", "setting": "Prima breast tumor cells; Cisplatin 6.5 mg/kg alone", "result": 93, "unit": "%"}, {"measurement": "Incidence of tumors Day 8", "setting": "Prima breast tumor cells; Cisplatin 6.5 mg/kg alone", "result": 100, "unit": "%"}, {"measurement": "Mean tumor weight Day 15", "setting": "Prima breast tumor cells; Cisplatin 6.5 mg/kg alone, n=8", "result": "1.4 ± 0.2", "unit": "g"}, {"measurement": "T/C Day 15", "setting": "Prima breast tumor cells; Cisplatin 9.0 mg/kg alone", "result": 47, "unit": "%"}, {"measurement": "Incidence of tumors Day 8", "setting": "Prima breast tumor cells; Cisplatin 9.0 mg/kg alone", "result": 0, "unit": "%"}, {"measurement": "Mean tumor weight Day 15", "setting": "Prima breast tumor cells; Cisplatin 9.0 mg/kg alone, n=8", "result": "0.7 ± 0.4", "unit": "g"}, {"measurement": "T/C Day 15", "setting": "Prima breast tumor cells; Cisplatin 11.5 mg/kg alone", "result": 28, "unit": "%"}, {"measurement": "Incidence of tumors Day 8", "setting": "Prima breast tumor cells; Cisplatin 11.5 mg/kg alone", "result": 0, "unit": "%"}, {"measurement": "Mean tumor weight Day 15", "setting": "Prima breast tumor cells; [6]", "result": "0.42 ± 0.08", "unit": "g"}, {"measurement": "T/C Day 15", "setting": "Prima breast tumor cells; Cisplatin 14.5 mg/kg alone", "result": 7, "unit": "%"}, {"measurement": "Incidence of tumors Day 8", "setting": "Prima breast tumor cells; Cisplatin 14.5 mg/kg alone", "result": 0, "unit": "%"}, {"measurement": "Efficacy against the Prima mammary tumor", "setting": "Prima breast tumor cells; cisplatin 9.0 and 11.5 mg/kg", "result": "effective"}, {"measurement": "Mice with tumors as assessed by palpation on Day 7", "setting": "Prima breast tumor cells; cisplatin […] alone, n=8", "result": "None"}, {"measurement": "Damage to retroperitoneal ganglionic cells", "setting": "[5]", "result": "more pronounced"}, {"measurement": "T/C", "setting": "MPC 11 tumor cells; Cisplatin 4.0 mg/kg alone", "result": 150, "unit": "%"}, {"measurement": "Incidence of tumors Day 7", "setting": "MPC 11 tumor cells; Cisplatin 4.0 mg/kg alone, n=8", "result": 100, "unit": "%"}, {"measurement": "MST", "setting": "MPC 11 tumor cells; Cisplatin 4.0 mg/kg alone, n=8", "result": "24 ± 4", "unit": "days"}, {"measurement": "T/C", "setting": "MPC 11 tumor cells; Cisplatin 6.5 mg/kg alone", "result": 181, "unit": "%"}, {"measurement": "Incidence of tumors Day 7", "setting": "MPC 11 tumor cells; Cisplatin 6.5 mg/kg alone, n=8", "result": 100, "unit": "%"}, {"measurement": "MST", "setting": "MPC 11 tumor cells; Cisplatin 6.5 mg/kg alone, n=8", "result": "29 ± 4", "unit": "days"}, {"measurement": "T/C", "setting": "MPC 11 tumor cells; Cisplatin 9.0 mg/kg alone", "result": ">300", "unit": "%"}, {"measurement": "Incidence of tumors Day 7", "setting": "MPC 11 tumor cells; Cisplatin 9.0 mg/kg alone, n=8", "result": 0, "unit": "%"}, {"measurement": "MST", "setting": "MPC 11 tumor cells; Cisplatin 9.0 mg/kg alone, n=8", "result": ">30", "unit": "days"}, {"measurement": "T/C", "setting": "MPC 11 tumor cells; Cisplatin 11.5 mg/kg alone", "result": ">300", "unit": "%"}, {"measurement": "Incidence of tumors Day 7", "setting": "MPC 11 tumor cells; [6]", "result": 0, "unit": "%"}, {"measurement": "MST", "setting": "MPC 11 tumor cells; [6]", "result": ">48", "unit": "days"}, {"measurement": "Incidence of tumors Day 7", "setting": "MPC 11 tumor cells; Cisplatin 14.5 mg/kg alone, n=8", "result": 0, "unit": "%"}, {"measurement": "Time at which decrease in cell viability was first observed", "setting": "LLC-PK1 cells; cisplatin 0.4 mM for 1 h, time after termination of the incubation", "result": 24, "unit": "h"}]}
